Test results from ChEMBL document CHEMBL4359852, “Design, synthesis and biological evaluation of novel 5-(piperazin-1-yl)quinolin-2(1H)-one derivatives as potential chitin synthase inhibitors and antifungal agents” (Eur J Med Chem, 2019).
Values after ≈ are worked out from the molar mass of the structure shown.

Assays:
Pseudomonas aeruginosa = test: Antibacterial activity against Pseudomonas aeruginosa ATCC 9027 assessed as reduction in bacterial cell growth incubated for overnight by two-fold serial dilution method; format: functional
[1] = Inhibition of Saccharomyces cerevisiae CGMCC 2.145 chitin synthase using GlcNAc and UDP-GlcNAc as substrate incubated for 60 mins by microplate reader analysis
Candida albicans = test: Antifungal activity against Candida albicans ATCC 76615 assessed as reduction in fungal cell growth incubated for 48 hrs by two-fold serial dilution method; format: functional; conditions: ATCC 76615, 48 h
Cryptococcus neoformans = test: Antifungal activity against Cryptococcus neoformans ATCC 32719 assessed as reduction in fungal cell growth incubated for 48 hrs by two-fold serial dilution method; format: functional; conditions: ATCC 32719, 48 h
Aspergillus flavus = test: Antifungal activity against Aspergillus flavus ATCC 16870 assessed as reduction in fungal cell growth incubated for 48 hrs by two-fold serial dilution method; format: functional; conditions: ATCC 16870, 48 h
Staphylococcus aureus [2] = test: Antibacterial activity against Staphylococcus aureus ATCC 25923 assessed as reduction in bacterial cell growth incubated for overnight by two-fold serial dilution method; format: functional
Staphylococcus aureus [3] = test: Antibacterial activity against methicillin resistant Staphylococcus aureus N 315 assessed as reduction in bacterial cell growth incubated for overnight by two-fold serial dilution method; format: functional
Bacillus subtilis = test: Antibacterial activity against Bacillus subtilis ATCC 6633 assessed as reduction in bacterial cell growth incubated for overnight by two-fold serial dilution method; format: functional
Proteus vulgaris = test: Antibacterial activity against Bacillus proteus ATCC 8427 assessed as reduction in bacterial cell growth incubated for overnight by two-fold serial dilution method; format: functional
Escherichia coli = test: Antibacterial activity against Escherichia coli JM109 assessed as reduction in bacterial cell growth incubated for overnight by two-fold serial dilution method; format: functional
Saccharomyces cerevisiae = test: Inhibition of Saccharomyces cerevisiae CGMCC 2.145 chitin synthase using GlcNAc and UDP-GlcNAc as substrate at 300 ug/ml incubated for 60 mins by microplate reader analysis relative to control

Row | SMILES | MIC (Pseudomonas aeruginosa) [µg/mL] | IC50 [1] [µM] | MIC (Candida albicans) [µg/mL] | MIC (Cryptococcus neoformans) [µg/mL] | MIC (Aspergillus flavus) [µg/mL] | MIC (Staphylococcus aureus [2]) [µg/mL] | MIC (Staphylococcus aureus [3]) [µg/mL] | MIC (Bacillus subtilis) [µg/mL] | MIC (Proteus vulgaris) [µg/mL] | MIC (Escherichia coli) [µg/mL] | inhibition (Saccharomyces cerevisiae) [%]
1 | Cl.O=C1CCc2c(cccc2N2CCN(C[C@H](O)CNc3ccc(Br)cc3)CC2)N1 | 128 | 330 | 128 | 128 | 64 | 64 | 64 | 128 | 256 | 128 | –
2 | Cl.O=C1CCc2c(cccc2N2CCN(C[C@@H](O)CNc3ccc(Br)cc3)CC2)N1 | 128 | 350 | 64 | 128 | 128 | 64 | 128 | 64 | 128 | 256 | –
3 | CCCCNC[C@@H](O)CN1CCN(c2cccc3c2CCC(=O)N3)CC1.Cl | 256 | 310 | 128 | 128 | 256 | 256 | 256 | 256 | 256 | 256 | –
4 | CCCCNCC(O)CN1CCN(c2cccc3c2CCC(=O)N3)CC1.Cl (racemic) | 256 | 370 | 64 | 256 | 256 | 256 | 128 | 256 | 256 | 256 | 63.7
5 | Cl.O=C1CCc2c(cccc2N2CCN(CC(O)CNc3ccc(Br)cc3)CC2)N1 (racemic) | 256 | 380 | 64 | 256 | 64 | 64 | 128 | 64 | 128 | 256 | 55.4
6 | Cl.O=C1CCc2c(cccc2N2CCN(CC(O)CNc3ccccc3)CC2)N1 (racemic) | 256 | 150 | 64 | 128 | 128 | 128 | 128 | 128 | 128 | 256 | 62.7
7 | Cl.O=C1CCc2c(cccc2N2CCN(C[C@@H](O)CNc3ccc(Cl)cc3)CC2)N1 | 256 | 360 | 32 | 128 | 128 | 64 | 64 | 64 | 128 | 128 | –
8 | Cl.O=C1CCc2c(cccc2N2CCN(CC(O)Cn3ccnc3)CC2)N1 (racemic) | 128 | 470 | 64 | 256 | 256 | 64 | 128 | 64 | 128 | 128 | 53.3
9 | Cl.O=C1CCc2c(cccc2N2CCN(CC(O)CNc3ccc(Cl)cc3)CC2)N1 (racemic) | 128 | 360 | 32 | 256 | 256 | 64 | 64 | 64 | 128 | 128 | 59.3
10 | Cl.O=C1CCc2c(cccc2N2CCN(CC(O)CN3CCCC3)CC2)N1 (racemic) | 512 | – | 128 | 256 | 256 | 256 | 256 | 256 | 256 | 128 | 49.9
11 | Cl.O=C1CCc2c(cccc2N2CCN(CC(O)CN3CCOCC3)CC2)N1 (racemic) | 128 | – | 64 | 256 | 256 | 256 | 128 | 128 | 128 | 128 | 44.7
12 | Cl.O=C1CCc2c(cccc2N2CCN(CC(O)CNc3cccc4ccccc34)CC2)N1 (racemic) | 128 | – | 128 | 256 | 512 | 128 | 128 | 256 | 128 | 128 | 47.5
13 | Cc1cccc(C)c1NCC(O)CN1CCN(c2cccc3c2CCC(=O)N3)CC1.Cl (racemic) | 128 | – | 128 | 256 | 256 | 128 | 256 | 128 | 128 | 128 | 40.7
14 | Cl.O=C1CCc2c(cccc2N2CCN(CC(O)CN3CCCCCC3)CC2)N1 (racemic) | 256 | – | 128 | 256 | 256 | 256 | 512 | 256 | 256 | 256 | 45.4
15 | COc1ccccc1NCC(O)CN1CCN(c2cccc3c2CCC(=O)N3)CC1.Cl (racemic) | 128 | – | 128 | 512 | 256 | 256 | 128 | 256 | 256 | 258 | 45.4
16 | COc1ccc(NCC(O)CN2CCN(c3cccc4c3CCC(=O)N4)CC2)cc1.Cl (racemic) | 128 | 100 | 32 | 128 | 128 | 64 | 128 | 128 | 256 | 64 | 84.9
17 | Cl.O=C1CCc2c(cccc2N2CCN(C[C@H](O)CNc3ccccc3)CC2)N1 | 256 | 170 | 64 | 256 | 128 | 256 | 128 | 256 | 128 | 256 | –
18 | CCCCNC[C@H](O)CN1CCN(c2cccc3c2CCC(=O)N3)CC1.Cl | 128 | 340 | 64 | 256 | 512 | 256 | 256 | 512 | 256 | 128 | –
19 | Cl.O=C1CCc2c(cccc2N2CCN(CC(O)CNCc3ccccc3)CC2)N1 (racemic) | 256 | – | 128 | > 512 | > 512 | 256 | 128 | 256 | 256 | 256 | 18.1
20 | NC(=O)OC[C@H](O)[C@@H](O)[C@H](N)C(=O)N[C@H](C(=O)O)[C@H]1O[C@@H](n2cc(CO)c(=O)[nH]c2=O)[C@H](O)[C@@H]1O [POLYOXIN B] | – | 180 | 32 (≈ 63.1 µM) | 8 (≈ 15.8 µM) | 32 (≈ 63.1 µM) | – | – | – | – | – | 85.1
21 | Cl.O=C1CCc2c(cccc2N2CCN(C[C@@H](O)CNc3ccccc3)CC2)N1 | 128 | 190 | 128 | 128 | 128 | 128 | 128 | 128 | 256 | 128 | –
22 | Cl.O=C1CCc2c(cccc2N2CCN(C[C@H](O)CNc3ccc(Cl)cc3)CC2)N1 | 256 | 380 | 32 | 256 | 128 | 128 | 128 | 128 | 128 | 128 | –
23 | COc1ccc(NC[C@H](O)CN2CCN(c3cccc4c3CCC(=O)N4)CC2)cc1.Cl | 128 | 120 | 32 | 256 | 128 | 64 | 128 | 256 | 256 | 32 | –
24 | Cl.O=C1CCc2c(cccc2N2CCN(CC(O)CNc3ccccc3Cl)CC2)N1 (racemic) | 256 | 470 | 32 | 512 | 128 | 64 | 128 | 128 | 64 | 128 | 52.4
25 | COc1ccc(NC[C@@H](O)CN2CCN(c3cccc4c3CCC(=O)N4)CC2)cc1.Cl | 256 | 120 | 64 | 128 | 256 | 128 | 128 | 128 | 128 | 64 | –
